# Experimental data as given in patent publication US8592468B2, “Bacterial thioredoxin reductase inhibitors and methods for use thereof” (Thioredoxin Systems AB, priority 2006, dated 2013).
# Assays:
# Mammalian TrxR = details: from reference; cited from earlier work
# Gor^- DHB4 E. coli = assay: Bacterial inhibition by ebselen derivates, MIC; details: Escherichia coli, 4 h, read-out: MIC for Gor^- DHB4 E. coli
# Experimental: E. coli DHB4 strains wt, gshA^−, gor^−, oxyR^− were cultured overnight in LB medium. […] OD 600 was detected and DMSO was used as the control. […] The data are the means of two experiments.
# [1] = system: mammalian thioredoxin reductases; assay: Inhibition of mammalian thioredoxin reductases; type: biochemical
# Helicobacter pylori = assay: Bactericidal effects of ebselen on Helicobacter pylori (MBC); type: cell-based; parameters: key to Sensitivity to ebselen: S: sensitive; R: resistant
# Experimental: The bacteria were cultured in 96-well microtiter plates with a microaerophilic environment at 37° C. for 4 days. The whole amount of the wells was then plated on GC agar plates containing different concentrations of ebselen. Ebselen was diluted in a two-fold series (0.39-200 μg/ml), the minimal bactericidal concentration (MBC) was determined by the first concentration with a total bactericidal effect.
compound,measurement,setting,value
"O=c1c2ccccc2[se]n1-c1ccccc1 [EbSe 6, 2-phenyl-1,2-benzisoselenazol-3(2H)-one]",Km,Mammalian TrxR,2.5 µM
same,kcat,Mammalian TrxR,9.8 s⁻¹
same,kcat/KM,Mammalian TrxR,3.92e+06 M⁻¹ s⁻¹
same,MIC,Gor^- DHB4 E. coli,15 µM
same,inhibitory activity of mammalian thioredoxin reductases,[1],no inhibitory activity
same,Sensitivity to ebselen,"Helicobacter pylori; strain MR G162, ebselen 0.78 μg/ml",R
same,Sensitivity to ebselen,"Helicobacter pylori; strain MR G162, ebselen 1.56 μg/ml",R
same,Sensitivity to ebselen,"Helicobacter pylori; strain MR G162, ebselen 3.125 μg/ml",R
same,Sensitivity to ebselen,"Helicobacter pylori; strain MR G162, ebselen 6.25 μg/ml",R
same,Sensitivity to ebselen,"Helicobacter pylori; strain MR G162, ebselen 25 μg/ml",S
same,Sensitivity to ebselen,"Helicobacter pylori; strain MR G162, ebselen 50 μg/ml",S
same,Sensitivity to ebselen,"Helicobacter pylori; strain MR G162, ebselen 100 μg/ml",S
same,Sensitivity to ebselen,"Helicobacter pylori; strain MR G193, ebselen 0.78 μg/ml",R
same,Sensitivity to ebselen,"Helicobacter pylori; strain MR G193, ebselen 1.56 μg/ml",R
same,Sensitivity to ebselen,"Helicobacter pylori; strain MR G193, ebselen 3.125 μg/ml",R
same,Sensitivity to ebselen,"Helicobacter pylori; strain MR G193, ebselen 6.25 μg/ml",R
same,Sensitivity to ebselen,"Helicobacter pylori; strain MR G193, ebselen 25 μg/ml",S
same,Sensitivity to ebselen,"Helicobacter pylori; strain MR G193, ebselen 50 μg/ml",S
same,Sensitivity to ebselen,"Helicobacter pylori; strain MR G193, ebselen 100 μg/ml",S
same,Sensitivity to ebselen,"Helicobacter pylori; strain MS G6, ebselen 0.78 μg/ml",R
same,Sensitivity to ebselen,"Helicobacter pylori; strain MS G6, ebselen 1.56 μg/ml",R
same,Sensitivity to ebselen,"Helicobacter pylori; strain MS G6, ebselen 3.125 μg/ml",S
same,Sensitivity to ebselen,"Helicobacter pylori; strain MS G6, ebselen 6.25 μg/ml",S
same,Sensitivity to ebselen,"Helicobacter pylori; strain MS G6, ebselen 25 μg/ml",S
same,Sensitivity to ebselen,"Helicobacter pylori; strain MS G6, ebselen 50 μg/ml",S
same,Sensitivity to ebselen,"Helicobacter pylori; strain MS G6, ebselen 100 μg/ml",S
same,Sensitivity to ebselen,"Helicobacter pylori; strain MS G142, ebselen 0.78 μg/ml",R
same,Sensitivity to ebselen,"Helicobacter pylori; strain MS G142, ebselen 1.56 μg/ml",R
same,Sensitivity to ebselen,"Helicobacter pylori; strain MS G142, ebselen 3.125 μg/ml",R
same,Sensitivity to ebselen,"Helicobacter pylori; strain MS G142, ebselen 6.25 μg/ml",S
same,Sensitivity to ebselen,"Helicobacter pylori; strain MS G142, ebselen 25 μg/ml",S
same,Sensitivity to ebselen,"Helicobacter pylori; strain MS G142, ebselen 50 μg/ml",S
same,Sensitivity to ebselen,"Helicobacter pylori; strain MS G142, ebselen 100 μg/ml",S
same,minimal bactericidal concentration (MBC),"Helicobacter pylori; two macrolide sensitive strains, listed as ebselen",6.25 µg/mL
